From US20220125748A1, “HISTONE ACETYLTRANSFERASE (HAT) REGULATORS AND USES THEREOF” (The Trustees of Columbia University in the City of New York, priority 2019, published 2022)
Entries after “also recorded” stand apart in the source; their conditions may differ.

What was measured:
[1] = molecular target: p300 (Homo sapiens, UniProt Q09472); assay: In vitro acetylation assay (p300, histone 3 Lys 18 / Lys 27, western blot); assay type: biochemical; settings: compound in DMSO; for H3-Lys 27 EC50 / H3-Lys 27 IC50: Lys 27 of histone 3; for EC50: read-out: H3-Lys 18 EC50
Protocol: The aim of the in vitro acetylation assay is to measure the enzymatic activity of the various compounds towards p300. Results are provided in FIG. 3A to FIG. 7B for average values of lysine residue acetylation (continuous line) and their standard error range measured in the absence of compound and DMSO, wherein “n” represents the number of replicates.
First, the drug is prepared:
Second, dilute p300 in AM1 buffer to a concentration of 40 ng/μL (final concentration in the reaction 20 ng/μL). This is accomplished by diluting 1 μL of p300 (at 0.4 μg/μL) into […] of AM1 buffer.
Third, prepare the Master Mix. Prepare the Master Mix in low protein binding tubes (ThermoFisher Cat. No. 90410), 20 μL system.
Incubate reactions at 30° C. for 30 minutes.
Incubate reactions at 30° C. for 1 hour.
Fourth, perform the western blot assay. • Add 6.7 μL of Laemmli Sample Buffer 4× (Bio-Rad Laboratories Cat. No. 161-0737) for each reaction and boil samples at 95° C. for 5 min. • Charge 10 μL for each sample in 2 Tris Glycine 4-15% gels (Bio-Rad Laboratories Cat. No. 456-1086). Running Buffer: Tris-Glycine 1× (pour in the cell up to the writing “2 gels”). • Run at 90 V for 1 hour (until the gel front reaches the green line of cell). • Semi-dry transfer with Trans-Blot® Turbo™ Blotting System from Bio-Rad Laboratories (Trans-Blot® Turbo™ RTA midi PVDF transfer kit Cat. No1704275). • Activate PVDF membrane in methanol for 5 minutes and then wet in Trans-Blot® Turbo™ transfer buffer. • Wet stacks in transfer buffer. • Transfer at 23 V 1.3 A for 7 minutes. • Blocking buffer: 5% Non-Fat milk in TBST (tween 0.1%) 1 hour at room temperature. • Cut the membranes to get Ac-His 3 at 17 kDa and p300 at 300 kDa. • Incubate with primary antibodies overnight at 4° C. • The day after, make 3 washes in TBST (Tween 0.1%) of 10 minutes. • Incubate with secondary antibody at room temperature for 1 hour. • Make 3 washes in TBST (Tween 0.1%) of 5 minutes. • Incubate membranes with ECL (SuperSignal West Dura Extended Duration Substrate from ThermoFisher) for 5 minutes at room temperature. • Acquire the image with ChemiDoc Odyssey Fc 2 minutes.
To detect total H3 (loading control), strip the membranes with Restore™ Western Blot Stripping Buffer according to the manufacturer protocol.
Various compounds were tested for enzymatic activity with respect to Lys 18 and Lys 27 of histone 3. EC50 is indicated for activators and IC50 for inhibitors respectively.

[2] = Stability in human liver microsomes; assay type: in vitro ADME; settings: both sexes
Protocol: Compounds were tested for stability in human liver microsomes.
Experimental Procedure • Mixed-gender human liver microsomes (Lot #1210347) were purchased from XenoTech. The reaction mixture, minus NADPH, was prepared as described below. The test article was added into the reaction mixture at a final concentration of 1 μM. The control compound, testosterone, was run simultaneously with the test articles in a separate reaction. An aliquot of the reaction mixture (without cofactor) was equilibrated in a shaking water bath at 37° C. for 3 minutes. The reaction was initiated by the addition of the cofactor, and the mixture was incubated in a shaking water bath at 37° C. Aliquots (100 μL) were withdrawn at 0, 10, 20, 30, and 60 minutes. Test article and testosterone samples were immediately combined with 400 μL of ice-cold 50/50 acetonitrile (ACN)/H2O containing 0.1% formic acid and internal standard to terminate the reaction. […] Half-lives and clearance were calculated using GraphPad software, fitting to a single-phase exponential decay equation. […]
Note (a): When the calculated half-life is longer than the duration of the experiment, the half-life is expressed as being greater than the longest incubation time. Note (b): Intrinsic clearance (CLint) was calculated based on CLint=k/P, where k is the elimination constant and P is the protein concentration in the incubation.

[3] = tested on: mice administered with oTau; assay: 2 day radial arm water maze (RAWM), spatial short-term memory; assay type: in vivo; settings: oTau 500 nM, YF2 5 mg/kg
Protocol: Oligomeric tau caused a defect of spatial memory and associative memory. YF2 was injected in mice either alone or concurrently with oligomeric tau. The compound rescued the oligomeric tau induced defect in memory. […] The performance in the RAWM was impaired in mice administered with oTau (500 nM). […] The performance was not impaired when mice were treated with only YF2 or vehicle.

[4] = tested on: hippocampal slices from WT mice perfused with oTau; assay: oTau-induced LTP deficit in hippocampal slices
Text: against tau induced synaptic dysfunction. Oligomeric tau caused a defect of LTP. YF2 was applied to hippocampal slices either alone or concurrently with oligomeric tau. […] FIG. 8 is a graph illustrating that YF2 rescues oTau-induced LTP deficits. LTP was impaired in hippocampal slices from WT mice perfused with oTau. The concurrent treatment with YF2 and oTau reestablished normal LTP. There was no impairment in slices treated with YF2 or vehicle. The horizontal solid bar represents oTau perfusion while the horizontal dashed bar represents drug treatment. The three arrows correspond to the theta-burst stimulation. Two-Way ANOVA Vehicle vs. oTau: F(1, 21)=21.32, p=0.0001; Vehicle vs. YF2: F(1, 21)=0.200, p=0.6593; Vehicle vs. YF2+oTau: F(1, 22)=0.3455, p=0.563; YF2 vs. oTau: F(1, 22)=13.72, p=0.0012; YF2 vs. YF2+oTau: F(1, 23)=0.00043, p=0.984; YF2+oTau vs. oTau: F(1, 23)=31.52, p<0.0001.

[5] = tested on: mice administered with oTau; assay: Contextual fear memory; assay type: in vivo; settings: YF2 plus oTau vs oTau, 24 hrs after the electric shock
Text: A statistical significant difference is visible when comparing all groups during testing for contextual fear memory at 24 hrs after the electric shock (ANOVA among all groups: F(3, 53)=3.051 p=0.0364).

[6] = Lys 18 of histone 3, EC50 for activators

Sequence of p300 (Q09472 whole entry, species assumed): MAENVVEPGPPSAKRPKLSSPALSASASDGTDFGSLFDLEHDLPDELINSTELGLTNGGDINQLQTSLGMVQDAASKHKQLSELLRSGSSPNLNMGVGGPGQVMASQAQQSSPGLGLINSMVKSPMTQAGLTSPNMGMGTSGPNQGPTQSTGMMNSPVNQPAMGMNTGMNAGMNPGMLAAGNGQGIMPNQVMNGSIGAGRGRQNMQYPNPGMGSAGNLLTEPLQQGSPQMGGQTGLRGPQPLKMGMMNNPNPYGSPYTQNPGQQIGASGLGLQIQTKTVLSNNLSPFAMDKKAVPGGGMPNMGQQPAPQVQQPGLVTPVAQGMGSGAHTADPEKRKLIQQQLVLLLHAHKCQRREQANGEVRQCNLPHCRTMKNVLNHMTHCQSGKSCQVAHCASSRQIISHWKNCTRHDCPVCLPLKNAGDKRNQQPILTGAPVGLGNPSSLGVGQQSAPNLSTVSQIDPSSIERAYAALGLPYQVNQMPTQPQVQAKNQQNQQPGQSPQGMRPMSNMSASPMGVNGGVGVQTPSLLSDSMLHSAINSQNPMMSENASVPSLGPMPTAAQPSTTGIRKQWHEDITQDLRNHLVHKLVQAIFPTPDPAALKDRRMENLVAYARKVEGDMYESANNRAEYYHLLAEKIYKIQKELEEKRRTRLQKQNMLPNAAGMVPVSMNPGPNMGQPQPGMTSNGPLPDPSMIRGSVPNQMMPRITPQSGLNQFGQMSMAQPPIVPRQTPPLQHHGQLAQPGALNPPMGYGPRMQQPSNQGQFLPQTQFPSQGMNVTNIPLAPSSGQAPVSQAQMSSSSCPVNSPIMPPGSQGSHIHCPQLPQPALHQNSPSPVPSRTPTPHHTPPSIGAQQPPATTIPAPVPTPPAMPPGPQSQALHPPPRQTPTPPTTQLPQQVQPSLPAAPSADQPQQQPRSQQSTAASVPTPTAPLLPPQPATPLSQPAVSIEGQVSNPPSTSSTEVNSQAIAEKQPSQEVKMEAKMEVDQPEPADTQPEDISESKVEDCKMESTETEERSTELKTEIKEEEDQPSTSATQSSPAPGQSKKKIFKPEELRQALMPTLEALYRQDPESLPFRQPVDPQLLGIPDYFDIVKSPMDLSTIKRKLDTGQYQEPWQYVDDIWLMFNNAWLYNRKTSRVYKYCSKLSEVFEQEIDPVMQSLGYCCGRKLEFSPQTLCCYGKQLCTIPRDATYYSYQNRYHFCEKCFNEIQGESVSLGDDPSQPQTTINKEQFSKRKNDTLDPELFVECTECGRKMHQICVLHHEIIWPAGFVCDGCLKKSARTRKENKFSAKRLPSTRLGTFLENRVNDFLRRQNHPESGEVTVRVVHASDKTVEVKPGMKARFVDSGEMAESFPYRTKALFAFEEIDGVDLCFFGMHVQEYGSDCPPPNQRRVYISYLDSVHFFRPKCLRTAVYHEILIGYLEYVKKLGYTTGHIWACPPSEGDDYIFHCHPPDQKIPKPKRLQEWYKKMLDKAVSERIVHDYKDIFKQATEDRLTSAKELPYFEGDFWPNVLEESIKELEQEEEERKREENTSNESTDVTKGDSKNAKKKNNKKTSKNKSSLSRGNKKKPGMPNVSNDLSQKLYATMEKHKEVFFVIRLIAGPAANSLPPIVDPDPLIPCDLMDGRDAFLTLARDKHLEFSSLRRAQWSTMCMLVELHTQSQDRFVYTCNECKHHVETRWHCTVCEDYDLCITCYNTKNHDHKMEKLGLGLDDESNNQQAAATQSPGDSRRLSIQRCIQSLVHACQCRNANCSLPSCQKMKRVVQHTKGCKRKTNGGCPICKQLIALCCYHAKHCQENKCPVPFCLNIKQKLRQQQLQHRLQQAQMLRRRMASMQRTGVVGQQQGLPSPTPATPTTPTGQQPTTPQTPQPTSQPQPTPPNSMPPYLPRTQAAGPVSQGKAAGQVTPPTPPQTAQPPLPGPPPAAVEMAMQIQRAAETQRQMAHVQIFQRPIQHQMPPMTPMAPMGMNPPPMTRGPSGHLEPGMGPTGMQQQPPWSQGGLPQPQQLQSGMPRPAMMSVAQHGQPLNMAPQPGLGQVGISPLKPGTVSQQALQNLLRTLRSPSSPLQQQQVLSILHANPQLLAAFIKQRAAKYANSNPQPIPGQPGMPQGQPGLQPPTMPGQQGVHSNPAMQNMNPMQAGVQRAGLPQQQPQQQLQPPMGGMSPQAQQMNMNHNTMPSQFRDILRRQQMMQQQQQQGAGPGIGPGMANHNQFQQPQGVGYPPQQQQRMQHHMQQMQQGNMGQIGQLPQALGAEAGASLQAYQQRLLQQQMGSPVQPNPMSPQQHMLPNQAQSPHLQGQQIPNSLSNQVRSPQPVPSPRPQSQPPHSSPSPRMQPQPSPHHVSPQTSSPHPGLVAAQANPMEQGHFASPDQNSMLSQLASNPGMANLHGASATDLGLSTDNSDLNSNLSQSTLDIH

Which “H3-Lys 18 EC50” value [1, 6] does the source give for `CN(C)CCOc1cccc2c1C(=O)N(c1ccc(Cl)c(C(F)(F)F)c1)C2=O` [JF19] here?
Its value is “NO ACTIVITY”.

What about the “H3-Lys 18 IC50” value ([1]; Lys 18 of histone 3, IC50 for inhibitors) of the same compound?
Its value is “NO ACTIVITY”.

And the “H3-Lys 27 EC50” value ([1]; EC50 for activators)?
The value was “NO ACTIVITY”.

What about the “H3-Lys 27 IC50” value ([1]; IC50 for inhibitors) of the same compound?
Its value is “NO ACTIVITY”.

For `C[C@]12CC[C@H]3[C@@H](CCC4=CC(=O)CC[C@@]43C)[C@@H]1CC[C@@H]2O` [Testosterone, testosterone], which half-life at 1 μM ([2]; pH 7.4, 1 μM, single-phase exponential decay fit) is on record?
The half-life at 1 μM was 40.6 min.

What about the microsomal CLint at 1 μM ([2]; pH 7.4, CLint=k/P) of the same compound?
The microsomal CLint at 1 μM was 34.1 µL/min/mg.

For `CCOc1cccc(OCCN(C)C)c1C(=O)Nc1ccc(Cl)c(C(F)(F)F)c1` [YF2], which “RAWM performance, oTau-induced deficit” value [3] is on record?
Its value is “rescued the deficit; also recorded: rescues oTau-induced defects”.

And the “LTP with compound alone” value ([4]; hippocampal slices treated with YF2 alone)?
The value was “no impairment”.

And the “effect on oligomeric tau induced defect in long-term potentiation” value ([4]; hippocampal slices, concurrent treatment with YF2 and oTau)?
Its value is “rescued the oligomeric tau induced defect in long-term potentiation; also recorded: rescues oligomeric-Tau (oTau)-induced LTP deficits”.

What about the “contextual fear memory (freezing), oTau-induced deficit” value [5] of the same compound?
Its value is “rescues oTau-induced deficit in contextual fear memory; also recorded: rescues oTau-induced defects in contextual fear memory”.

With `CCOc1cccc(OCCN2CCOCC2)c1C(C)Nc1ccc(O)c(C(F)(F)F)c1` (centres unmarked) [JF2] as the compound, how does the EC50 [1, 6] read?
Its EC50 is 138 nM.

What about the “H3-Lys 27 EC50” value ([1]; EC50 for activators) of the same compound?
Its value is “NO ACTIVITY”.

And the “H3-Lys 27 IC50” value ([1]; IC50 for inhibitors)?
Its value is “NO ACTIVITY”.

With `FC(F)(F)c1cc(N2COc3ccccc3C2)ccc1Cl` [JF17] as the compound, how does the EC50 [1, 6] read?
Its EC50 is 103 nM.
